From patent US20050209278A1, “Piperidinyl- and piperazinyl-sulfonylmethyl hydroxamic acids and their use as protease inhibitors” (priority 2002, published 2005) come the findings set out here.

pKi: −log10 of the molar value. Where a name gives a salt, the structure may show the parent alone.

The target in one test is T1, MMP-1 (Homo sapiens, UniProt P03956).
T1 construct: made in house; host or cells: MMP-1-transfected HT-1080 cells (spent media)
T1 sequence (P03956 100-469): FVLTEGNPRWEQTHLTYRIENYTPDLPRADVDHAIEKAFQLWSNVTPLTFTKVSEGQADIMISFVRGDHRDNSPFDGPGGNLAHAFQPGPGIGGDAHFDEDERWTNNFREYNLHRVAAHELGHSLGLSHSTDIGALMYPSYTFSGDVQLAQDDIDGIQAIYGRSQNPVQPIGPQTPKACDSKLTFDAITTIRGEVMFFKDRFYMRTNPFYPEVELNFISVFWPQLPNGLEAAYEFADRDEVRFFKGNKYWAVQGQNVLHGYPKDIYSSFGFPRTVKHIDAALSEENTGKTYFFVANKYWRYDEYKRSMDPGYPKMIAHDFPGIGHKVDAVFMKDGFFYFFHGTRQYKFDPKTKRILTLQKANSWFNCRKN
The test can be described thus: In vitro MMP inhibition, Ki determination (fluorogenic substrate II). Format: biochemical. Particulars: human recombinant enzyme; 4 μM substrate II; room temperature, 1 hr; read-out: MMP-1 Ki. Here is the method:
(§1) Several hydroxamic acids and salts thereof were analyzed in in vitro assays to determine their ability to inhibit the MMP cleavage of peptide substrates. […] and IC50 constants were calculated from the assayed hydroxamic acid-MMP interactions.
(§2) Human recombinant MMP-1, MMP-2, MMP-9, MMP-13, and MMP-14 were used in this assay. All enzymes were prepared in Assignee's laboratories following usual laboratory procedures. Protocols for the preparation and use of these enzymes are available in the scientific literature. See, e.g., Enzyme Nomenclature (Academic Press, San Diego, Calif., 1992) (and the citations therein). See also, Freije et al., “Molecular cloning and expression of collagenase-3, a novel human matrix metalloproteinase produced by breast carcinomas,” J Biol. Chem., 269(24), 16766-16773 (1994).
The MMP-1 proenzyme was purified from the spent media of MMP-1-transfected HT-1080 cells provided by Dr. Harold Welgus of Washington University (St. Louis, Mo.). The protein was purified on a zinc chelating column.
(§3) All MMPs were activated using 4-aminophenylmercuric acetate (“APMA”, Sigma Chemical, St. Louis, Mo.) or trypsin. MMP-9 also was activated using human recombinant MMP-3 (purified in Assignee's laboratory following standard cloning and purification techniques).
(§4) Two fluorogenic, methoxycoumarin-containing polypeptide substrates were used in the MMP inhibition assays: [drawing 427] Here, “Dpa” is 3-(2,4-dinitrophenyl)-L-2,3-diaminopropionyl group, and “MCA” is 7-methoxycoumarin-4-yl acetyl. Substrate (I) was purchased from Baychem (Redwood City, Calif.), and substrate II was prepared Assignee's laboratory. Substrate I was used in the IC50 determination assays, while substrate II was used in the Ki determination assays. In the absence of MMP inhibitory activity, either substrate is cleaved at the Gly-Leu peptide bond. This cleavage separates the highly fluorogenic peptide from the 2,4-dinitrophenyl quencher, thus resulting in increase of fluorescent intensity.
(§5) The stock solutions of the assayed hydroxamic acids (or salts thereof) were prepared in 1% dimethyl sulfoxide (DMSO). These stock solutions were diluted in Buffer A (100 mM Tris-HCl, 100 mM NaCl, 10 mM CaCl2, 0.05% polyoxyethylene 23 lauryl ether, pH 7.5) to obtain solutions with different hydroxamic acid concentrations, i.e., assay solutions with different concentrations of the assayed MMP inhibitory compound. The experiment controls contained the same amount of Buffer A/DMSO as the assayed sample, but contained no hydroxamic acid (or salt thereof).
The assays from which the Ki determinations were made were performed as follows. The assayed hydroxamic acid samples were incubated in separate wells of untreated white polystyrene plates (Nunc Nalgene International, Rochester, N.Y.), and analyzed on a Tecan SpectraFlour Plus plate reader. The excitation wavelength was 330 nm, and the emission wavelength—420 nm. All samples (assayed hydroxamic acids and controls) were incubated in separate plate wells at room temperature for 1 hr in the presence of 4 μM of MMP substrate (II). In the absence of MMP inhibitory activity, substrate II was cleaved at the Gly-Leu bond resulting in an increase of relative fluorescence. Inhibition was observed as a reduced rate of this increase in relative fluorescence. The various hydroxamic acids were analyzed using a single low enzyme concentration with a single substrate concentration fixed at or below the Km. This protocol is a modification of method by Knight et al., FEBS Lett., 296(3), 263-266 (1992). Apparent inhibitory constants were determined by non-linear regression of reaction velocity as a function of inhibitor and enzyme concentration using Morrison's equation, as described by Kuzmic, Anal. Biochem. 286, 45-50 (2000). […] Since the substrate concentration was chosen to be at or below the Km, the apparent Ki's from this analysis were reported as Ki's without correction for the influence of substrate.

A further test deals with T2, MMP-9 (Homo sapiens, UniProt P14780).
T2 construct: made in house; host or cells: MMP-9-transfected HT1080 cells (spent media)
T2 sequence (P14780 107-707 limits assumed): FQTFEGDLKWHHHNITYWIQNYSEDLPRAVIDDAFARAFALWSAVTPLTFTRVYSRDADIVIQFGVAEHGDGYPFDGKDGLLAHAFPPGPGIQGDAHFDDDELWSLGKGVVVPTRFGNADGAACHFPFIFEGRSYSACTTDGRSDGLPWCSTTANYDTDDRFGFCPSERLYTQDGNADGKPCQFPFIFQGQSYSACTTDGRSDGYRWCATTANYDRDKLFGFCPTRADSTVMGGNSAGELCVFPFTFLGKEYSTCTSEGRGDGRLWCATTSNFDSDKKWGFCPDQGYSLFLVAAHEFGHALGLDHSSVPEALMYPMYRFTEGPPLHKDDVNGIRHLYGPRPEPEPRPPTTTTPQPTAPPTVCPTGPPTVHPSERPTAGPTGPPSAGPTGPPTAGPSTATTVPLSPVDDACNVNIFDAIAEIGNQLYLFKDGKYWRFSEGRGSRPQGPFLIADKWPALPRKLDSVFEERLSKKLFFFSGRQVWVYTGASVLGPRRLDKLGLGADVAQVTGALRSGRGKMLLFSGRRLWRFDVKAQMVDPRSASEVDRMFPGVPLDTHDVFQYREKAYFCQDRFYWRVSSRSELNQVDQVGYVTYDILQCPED
The test is described as above. The note with it: human recombinant enzyme; 4 μM substrate II; room temperature, 1 hr. Format: biochemical. Here is the method: as §1, §2
The MMP-9 proenzyme was purified by gelatin Sepharose chromatography from spent media of MMP-9-transfected HT1080 cells provided by Dr. Howard Welgus of Washington University (St. Louis, Mo.).
as §3, §4, §5
The assays from which the Ki determinations were made were performed as follows. The assayed hydroxamic acid samples were incubated in separate wells of untreated white polystyrene plates (Nunc Nalgene International, Rochester, N.Y.), and analyzed on a Tecan SpectraFlour Plus plate reader. The excitation wavelength was 330 nm, and the emission wavelength—420 nm. All samples (assayed hydroxamic acids and controls) were incubated in separate plate wells at room temperature for 1 hr in the presence of 4 μM of MMP substrate (II). In the absence of MMP inhibitory activity, substrate II was cleaved at the Gly-Leu bond resulting in an increase of relative fluorescence. Inhibition was observed as a reduced rate of this increase in relative fluorescence. The various hydroxamic acids were analyzed using a single low enzyme concentration with a single substrate concentration fixed at or below the Km. This protocol is a modification of method by Knight et al., FEBS Lett., 296(3), 263-266 (1992). Apparent inhibitory constants were determined by non-linear regression of reaction velocity as a function of inhibitor and enzyme concentration using Morrison's equation, as described by Kuzmic, Anal. Biochem. 286, 45-50 (2000). Modifications were made in the non-linear regression method to allow a common control reaction rate and effective enzyme concentration to be shared between all dose-response relationships on a given assay plate. […]

What is called pKi is −log10 of the Ki, conventionally taken in molar units.

For `CCCCc1cnc(N2CCN(S(=O)(=O)C3(C(=O)NO)CCOCC3)CC2)cn1` [Example 1, 4-{[4-(5-butylpyrazin-2-yl)piperazin-1-yl]sulfonyl}-N-hydroxytetrahydro-2H-pyran-4-carboxamide Dihydrochloride], the pKi was less than 5.00 at MMP-1 and 9.16 on MMP-9.
Take `O=C(NO)C1(S(=O)(=O)N2CCN(c3ccc(OCC(F)(F)F)cc3)CC2)CCOCC1` [Example 2, N-hydroxy-4-({4-[4-(2,2,2-trifluoroethoxy)phenyl]piperazin-1-yl}sulfonyl)tetrahydro-2H-pyran-4-carboxamide Hydrochloride]: the pKi is less than 5.00 on MMP-1 and 8.89 on MMP-9.
`CCOc1ccc(N2CCN(S(=O)(=O)C3(C(=O)NO)CCOCC3)CC2)cc1` [Example 3, 4-{[4-(4-ethoxyphenyl)piperazinyl]sulfonyl}perhydro-2H-pyran-4-carbohydroxamic Acid]: the pKi at MMP-1 was 5.12; on MMP-9, 9.03.
For `O=C(NO)C1(S(=O)(=O)N2CCN(c3ccc(OC(F)(F)C(F)F)cc3)CC2)CCOCC1` [Example 4, 4-({4-[4-(1,1,2,2-tetrafluoroethoxy)phenyl]piperazinyl}sulfonyl)perhydro-2H-pyran-4-carbohydroxamic Acid], the figures for the pKi on MMP-1 and at MMP-9 were 5.83 and 9.13, respectively.
For the compound `CCCCc1ccc(N2CCN(S(=O)(=O)C3(C(=O)NO)CCN(CCOC)CC3)CC2)cc1` [Example 5, 4-{[4-(4-butylphenyl)piperazin-1-yl]sulfonyl}-N-hydroxy-1-(2-methoxyethyl)piperidine-4-carboxamide Dihydrochloride], the pKi was less than 5.00 at MMP-1 and 9.97 on MMP-9.
The matching figures for `CCCCCc1ccc(N2CCN(S(=O)(=O)C3(C(=O)NO)CCN(CCOC)CC3)CC2)cc1` [Example 6, N-Hydroxy-1-(2-methoxyethyl)-4-{[4-(4-pentylphenyl)piperazin-1-yl]sulfonyl}piperidine-4-carboxamide Dihydrochloride]: less than 5.00 and 9.54.
With `O=C(NO)C1(S(=O)(=O)N2CCN(c3ccc(OCCCC(F)(F)F)cc3)CC2)CCOCC1` [Example 7, N-hydroxy-4-({4-[4-(4,4,4-trifluorobutoxy)phenyl]piperazin-1-yl}sulfonyl)tetrahydro-2H-pyran-4-carboxamide Hydrochloride], the pKi on MMP-1 is less than 5.00; at MMP-9, 8.13.
Regarding `COc1ccc(-c2cnc(N3CCN(S(=O)(=O)C4(C(=O)NO)CCOCC4)CC3)nc2)cc1` [Example 8, N-hydroxy-4-({4-[5-(4-methoxyphenyl)pyrimidin-2-yl]piperazin-1-yl}sulfonyl)tetrahydro-2H-pyran-4-carboxamide Hydrochloride], the pKi on MMP-1 is 6.13; at MMP-9, 8.78.
On to `COCCN1CCC(C(=O)NO)(S(=O)(=O)N2CCN(c3ccc(OCCCC(F)(F)F)cc3)CC2)CC1` [Example 9, N-hydroxy-1-(2-methoxyethyl)-4-({4-[4-(4,4,4-trifluorobutoxy)phenyl]piperazin-1-yl}sulfonyl)piperidine-4-carboxamide Dihydrochloride], for which the pKi was less than 5.00 on MMP-1 and 8.56 on MMP-9.
The matching figures for `O=C(NO)C1(S(=O)(=O)N2CCN(c3ccc(OCC4CC4)c(F)c3)CC2)CCN(C2CC2)CC1` [Example 10, 1-cyclopropyl-4-[[4-[4-(cyclopropylmethoxy)-3-fluorophenyl]-1-piperazinyl]sulfonyl]-N-hydroxy-4-piperidinecarboxamide, dihydrochloride]: less than 5.00 and 9.01.
The matching figures for `CCCCOc1ccc(N2CCN(S(=O)(=O)C3(C(=O)NO)CCN(CCOC)CC3)CC2)cc1F` [Example 11, 4-[[4-(4-butoxy-3-fluorophenyl)-1-piperazinyl]sulfonyl]-N-hydroxy-1-(2-methoxyethyl)-4-piperidinecarboxamide, Dihydrochloride]: less than 5.00 and 8.57.
Take `O=C(NO)C1(S(=O)(=O)N2CCN(c3ccc(-c4ccccc4)c(F)c3)CC2)CCOCC1` [Example 12, 4-{[4-(2-fluoro-1,1′-biphenyl-4-yl)piperazin-1-yl]sulfonyl}-N-hydroxytetrahydro-2H-pyran-4-carboxamide Hydrochloride]: the pKi at MMP-1 is less than 5.00; on MMP-9 it was 9.00.
The corresponding values for `CCCCCc1ccc(N2CCN(S(=O)(=O)C3(C(=O)NO)CCN(CCOC)CC3)CC2)cc1F` [Example 13, 4-{[4-(3-fluoro-4-pentylphenyl)piperazin-1-yl]sulfonyl}-N-hydroxy-1-(2-methoxyethyl)piperidine-4-carboxamide Dihydrochloride] are less than 5.00 and 9.15.
The corresponding values for `COCCOc1ccc(N2CCN(S(=O)(=O)C3(C(=O)NO)CCOCC3)CC2)cc1` [Example 14, N-hydroxy-4-({4-[4-(2-methoxyethoxy)phenyl]piperazin-1-yl}sulfonyl)tetrahydro-2H-pyran-4-carboxamide Hydrochloride] are less than 5.00 and 7.70.
The corresponding values for `CCCCCc1ccc(C2CCN(S(=O)(=O)C3(C(=O)NO)CCN(CCOC)CC3)CC2)cc1` [Example 15, N-hydroxy-1-(2-methoxyethyl)-4-{[4-(4-pentylpheyl)piperidin-1-yl]sulfonyl}piperidine-4-carboxamide Hydrochloride] are less than 5.00 and 9.89.
Regarding `CCCCOc1ccc(C2CCN(S(=O)(=O)C3(C(=O)NO)CCN(CCOC)CC3)CC2)cc1` [Example 16, 4-{[4-(4-butoxyphenyl)piperidin-1-yl]sulfonyl}-N-hydroxy-1-(2-methoxyethyl)piperidine-4-carboxamide Hydrochloride], the pKi on MMP-1 was less than 5.00; at MMP-9, 9.33.
